Consider one compound from PMC4257840 (Journal of Medicinal Chemistry, 2014).

Read-outs that look alike come from different tables or passages of the source.

Assay [1] has as its system nonsensitized rats challenged with a natural mixture of HDM allergens. The note with it: i.t. aerosol typically 60-360 min prior to allergen challenge, unsensitised BN rats.
Assay [2] concerns the target T1, Human recombinant dipeptidyl peptidase IV (Homo sapiens, UniProt P27487).
T1 construct: host or cells: insect Sf9 cells
Nature of the assay: Protease counter-screening: Dipeptidyl Dipeptidase IV. The assay is classed as biochemical. The method, then: (§1) Appendix 7. Protease Counter -Screening
(§2) Protease counter-screeni ng was performed using the methods described below. Initial screening was conducted in duplicate using a single test substance concentration of 10 µ M .
(§3) Additional assays were conducted in replicate for selected pairin gs of test s ubstance and enz yme in order to enable the determination of IC50 values using conventional procedures.
(§4) Determination of K i was made using the Batch K i program (Biokin Ltd, Pullman, WA) to derive values from the Morrison equation: […]
(§5) Where [E ] is the active enz yme concentration, Kiapp is the apparent inhibition const ant, v 0 is the control velocit y in the absence of inhibitors, vb is the background velocity, v is the initial reaction velocit y in the presence of inhibitor, and I is the inhibitor concentration.Thence:
(§6) Where [S ] is the substrate concentration and KM is the Michealis constant. […]
Test compound or vehicle was pre- incubated with 600 […]
The reaction was […]
initiated by addition of 1 µM N-CH3-SO2-D-FGR-pNA for another 120 min incubation period. […]
Factor Xa: Test compound or vehicle was pre -incubated for 15 min at 25 °C in modified 50 mM Tris-HCl buffer pH 7.6 containing 0.4 nM Factor Xa from human plasma. The reaction was initiated by addition of 0.3 mM N-a-Z-D-RGR-pNA for another 60 min incubation period. The amount of pNA form ed was measur ed at 405 nm. […]

The target of assay [3] is T2, human recombinant caspase 1 (Homo sapiens, UniProt P29466).
T2 construct: host or cells: E. coli
Nature of the assay: Protease counter-screening: Caspase 1. Format: biochemical. The method, then: as §1, §2, §3, §4, §5, §6
by addition of 50 µM Ac-DEVD-AMC for another 60 min incubation period. The amount of AMC formed was determined fluorimetricall y (excitation 360 nm/emission 465 nm). […]
by addition of 25 µM Ac-LEH D-A FC for another 60 min incubation period. The amount of amino-4- trifluorometh ylcoumarin (AFC) formed determined fluorimetrically (400nm/ 510nm).
Cathepsin C: Cathepsin C from bovine spleen was used as the source of enz yme. […] T he amount of AMC product formed was read spectrofluorimetrically

Another assay addresses T3, human plasma thrombin (Homo sapiens, UniProt P00734).
T3 construct: thrombin in modified HEPES buffer pH 7.5; from tissue; host or cells: human plasma
Nature of the assay: Protease counter-screening: Thrombin. The assay is classed as biochemical. The note with it: test concentration 0.3-100 µM. The method, then: as §1, §2, §3, §4, §5
Where [S ] is the substrate concentration and KM is the Michealis constant.
Caspase 1: Activity against human recombinant caspase 1 expressed in E. coli was tested using Ac-YVAD- AMC as the substrate. Test compound or vehicle was pre- incubated with 600 […]
followed by excitation/emission at 485/535 nm. […]
AMC formation was read at 360 nm/465 nm.
Cathepsin L2: Human recombinant cathepsin L2 expressed in NS0 cells was used as the enzyme source. […] Form ation of AMC was measured at 360 […]
The amount of AMC formed was read spectrofluorimetricall y at 360 nm/465 nm. […]

Assay [4] addresses T4, Factor VIIa from human plasma (Homo sapiens, UniProt P08709).
T4 construct: incubated with 25 nM Factor VIIa from; from tissue; host or cells: human plasma
Nature of the assay: Protease counter-screening: Factor VIIa. Format: biochemical. The method, then:
as §1, §2, §3, §4, §5, §6
Test compound or vehicle was pre- incubated with 600
Factor VIIa: Test compound or vehicle was pre- incubated with 25 nM Factor VIIa from human plasma in modified 50 mM Tris-HCl buffer pH 7.6 for 15 min at 25 °C. The reaction was initiated by addition of 1 µM N-CH3-SO2-D-FGR-pNA for another 120 min incubation period.
The amount of pNA formed was read spectrophotometricall y at 405 nm. […]

In another assay the target is human liver Cat B (Homo sapiens, UniProt P07858). Nature of the assay: Cathepsin B inhibition assay.

T1 sequence (P27487 whole entry): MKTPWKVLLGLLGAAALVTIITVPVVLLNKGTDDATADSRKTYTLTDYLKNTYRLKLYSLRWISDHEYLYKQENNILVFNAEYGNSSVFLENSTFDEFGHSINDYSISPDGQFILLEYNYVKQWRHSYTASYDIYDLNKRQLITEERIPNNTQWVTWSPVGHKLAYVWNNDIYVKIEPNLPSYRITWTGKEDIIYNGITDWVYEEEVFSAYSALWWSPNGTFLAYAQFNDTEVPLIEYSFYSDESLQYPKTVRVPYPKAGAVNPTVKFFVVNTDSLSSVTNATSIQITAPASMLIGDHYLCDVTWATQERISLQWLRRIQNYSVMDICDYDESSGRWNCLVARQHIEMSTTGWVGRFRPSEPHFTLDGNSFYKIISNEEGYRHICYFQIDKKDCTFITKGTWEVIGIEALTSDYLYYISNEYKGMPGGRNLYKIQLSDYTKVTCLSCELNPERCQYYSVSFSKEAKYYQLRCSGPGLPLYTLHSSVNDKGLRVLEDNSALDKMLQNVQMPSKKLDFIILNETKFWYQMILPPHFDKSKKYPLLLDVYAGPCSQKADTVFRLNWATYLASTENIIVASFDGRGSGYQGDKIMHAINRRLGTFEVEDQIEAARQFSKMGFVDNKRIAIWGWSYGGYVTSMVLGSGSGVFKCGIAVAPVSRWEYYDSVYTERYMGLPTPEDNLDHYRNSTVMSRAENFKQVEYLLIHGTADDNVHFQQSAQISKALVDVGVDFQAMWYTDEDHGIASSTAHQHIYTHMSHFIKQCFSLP
T4 sequence (P08709 213-466 limits assumed): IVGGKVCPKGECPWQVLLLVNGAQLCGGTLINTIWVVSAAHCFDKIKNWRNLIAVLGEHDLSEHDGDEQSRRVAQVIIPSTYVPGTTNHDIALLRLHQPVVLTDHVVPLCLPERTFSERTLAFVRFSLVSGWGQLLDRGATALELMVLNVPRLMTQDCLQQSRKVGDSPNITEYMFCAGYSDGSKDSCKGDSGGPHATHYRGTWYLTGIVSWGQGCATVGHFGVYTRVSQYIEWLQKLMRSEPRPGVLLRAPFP
T4 sequence (P08709 61-212 limits assumed): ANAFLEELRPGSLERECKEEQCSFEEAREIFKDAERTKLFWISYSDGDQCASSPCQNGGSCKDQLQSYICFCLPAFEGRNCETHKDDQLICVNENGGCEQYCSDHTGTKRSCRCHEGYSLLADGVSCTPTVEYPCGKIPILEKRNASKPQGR
T2 sequence (P29466 120-297 limits assumed): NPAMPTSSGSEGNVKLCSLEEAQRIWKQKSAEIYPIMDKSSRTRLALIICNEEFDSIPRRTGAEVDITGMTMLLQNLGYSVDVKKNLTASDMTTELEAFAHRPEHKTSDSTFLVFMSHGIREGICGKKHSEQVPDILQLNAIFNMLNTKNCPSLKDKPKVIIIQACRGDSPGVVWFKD
T2 sequence (P29466 317-404 limits assumed): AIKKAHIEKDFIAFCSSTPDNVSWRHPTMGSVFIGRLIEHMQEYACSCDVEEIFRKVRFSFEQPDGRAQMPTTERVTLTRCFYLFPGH
Experimental for human liver Cat B: Inhibition of Cat B was measured as described with modifications.[25] […] Progress curves were followed at 30 °C by detection of fluorescence at 320/420 nm (excitation/emission).
In all cases, for reactions involving inhibitors, the amount of reaction buffer was adjusted to 60 μL, the inhibitor added as a 10 μL aliquot, and incubated for 20 min with the enzyme prior to reaction start.

`CC(C)[C@H](NC(=O)[C@H](C)NC(=O)[C@@H](NC(=O)c1ccccc1)C(C)(C)C)C(=O)C(=O)NCc1ccccc1` [Compound 38, N-{(S)-1-[(S)-1-((S)-1-Benzylaminooxalyl-2-methyl-propylcarbamoyl)-ethylcarbamoyl]-2,2-dimethyl-propyl}-benzamide]: the “duration of protection: trend of inhibition of eosinophil recruitment with increasing pre-treatment interval” value in assay [1] is recorded as “rise to well-maintained”. In addition, the inhibition at 10 µM worked out at 0% in assay [2], 8% in assay [3] and 1% in assay [4]. For the same compound, the concentration for half-maximal inhibition (IC50) on human plasma thrombin was more than 100 µM; on human liver Cat B (read-out: Cat B IC50, mean ± SE), 512 ± 59 nM; on human liver Cat B (read-out: Cathepsin B IC50, Table S1 counter-screening) it was 510 nM.
